Reference: ChEMBL document CHEMBL6178021, “Optimization of Tambjamines Active against Multiple Stages of Malaria Parasites” (J Med Chem, 2025)
Converted amounts (≈) assume the structure as drawn.

Legend:
[1] = tested on: Plasmodium falciparum; assay: Antiplasmodial activity against asexual blood-stage Plasmodium falciparum Tm90-C2B using 2% haematocrit and 0.2% parasitemia assessed as reduction in fluorescence measured after 72 hrs by Malaria SYBR Green I-based Fluorescence (MSF) assay; assay type: functional, organism-based
[2] = tested on: Plasmodium falciparum; assay: microbe, parasite or virus in culture; conditions: D6, 72 h
Description: Antiplasmodial activity against asexual blood-stage Plasmodium falciparum D6 using 2% haematocrit and 0.2% parasitemia assessed as reduction in fluorescence measured after 72 hrs by Malaria SYBR Green I-based Fluorescence (MSF) assay

[3] = tested on: Plasmodium falciparum; assay: microbe, parasite or virus in culture; conditions: Dd2, 72 h
Description: Antiplasmodial activity against asexual blood-stage Plasmodium falciparum Dd2 using 2% haematocrit and 0.2% parasitemia assessed as reduction in fluorescence measured after 72 hrs by Malaria SYBR Green I-based Fluorescence (MSF) assay

[4] = Solubility of the compound in potassium phosphate buffer at pH 7.4 by UV-vis spectroscopy; conditions: buffer
[5] = tested on: MDR1 (human); assay: Apparent permeability across apical to basolateral side in MDCK transfected with human MDR1 cells incubated for 1 hr by LC-MS analysis; conditions: dog, MDCK-MDR1
[6] = Metabolic stability in mouse liver microsomes assessed as half life measured up to 60 mins by LC/MS analysis; assay type: ADME, Microsome
[7] = tested on: MDR1 (human); assay: Apparent permeability across basolateral to apical side in MDCK transfected with human MDR1 cells incubated for 1 hr by LC-MS analysis; conditions: dog, MDCK-MDR1
[8] = tested on: Plasmodium yoelii; assay: Antimalarial activity against erythrocytic Plasmodium yoelii MRA-428 infected in CF1 mouse assessed as reduction in parasitemia at 10 mg/kg, po once daily for 4 days measured on day 5; assay type: functional; parameters: scale not given: the % may be the effect or the level left; conditions: time 4 day
[9] = Metabolic stability in human liver microsomes assessed as half life measured up to 60 mins by LC/MS analysis; assay type: ADME, Microsome
[10] = tested on: HepG2; assay: Cytotoxicity against human HepG2 cells assessed as cell viability measured after 48 hrs by MTT assay; assay type: toxicity, cell-based; conditions: hepg2
[11] = in vitro; conditions: human, liver microsomes
[12] = in vitro; conditions: mouse, liver microsomes

IC50 [1]	IC50 [2]	IC50 [3]	SMILES	other results
> 2.5 µM	> 2.5 µM	> 2.5 µM	CCC1=C(CC)/C(=C/NC23C[C@H]4C[C@@H](C2)C[C@@H](C3)C4)N=C1c1ccn[nH]1	
0.184 µM	0.228 µM	0.113 µM	COc1ccc(OC2=C(Oc3ccc(OC)cc3)/C(=C/NC34C[C@H]5C[C@@H](C3)C[C@@H](C4)C5)N=C2c2ccc[nH]2)cc1	
> 2.5 µM	> 2.5 µM	> 2.5 µM	CCC1=C(CC)/C(=C/NC23C[C@H]4C[C@@H](C2)C[C@@H](C3)C4)N=C1c1ccccc1OC	
1.4 µM	2.07 µM	0.774 µM	CCC1=C(CC)/C(=C/NC23C[C@H]4C[C@@H](C2)C[C@@H](C3)C4)N=C1c1ccccc1OCCN(CC)CC	
> 2.5 µM	> 2.5 µM	> 2.5 µM	CCC1=C(CC)/C(=C/NC2CCCCC2)N=C1c1ccccc1O	
0.351 µM	0.412 µM	0.359 µM	C(/NC12C[C@H]3C[C@@H](C1)C[C@@H](C2)C3)=C1/N=C(c2ccc[nH]2)C(c2ccccc2)=C1c1ccccc1	
> 2.5 µM	> 2.5 µM	> 2.5 µM	CCc1ccc(-c2[nH]c(C(=O)NC34C[C@H]5C[C@@H](C3)C[C@@H](C4)C5)c(CC)c2CC)[nH]1	
1.06 µM	> 2.5 µM	0.757 µM	CCC1=C(CC)/C(=C/NC2CCCCC2)N=C1c1ccccc1OCCN(CC)CC	
1.73 µM	> 2.5 µM	2.44 µM	CCC1=C(CC)/C(=C/NC23C[C@H]4C[C@@H](C2)C[C@@H](C3)C4)N=C1c1ccccc1OCCN(C)C	
0.912 µM		0.753 µM	CCc1c(CNC23CC4CC(CC(C4)C2)C3)[nH]c(-c2ccc[nH]2)c1CC	
> 2.5 µM	> 2.5 µM	> 2.5 µM	CCc1c(C(=O)NC23C[C@H]4C[C@@H](C2)C[C@@H](C3)C4)[nH]c(-c2ccc[nH]2)c1CC	
> 2.5 µM	> 2.5 µM	> 2.5 µM	CCC1=C(CC)/C(=C/NC2CCCCC2)N=C1c1ccccc1OC	
> 2.5 µM	> 2.5 µM	> 2.5 µM	CCC1=C(CC)/C(=C/NC2CCCCC2)N=C1c1cc2ccccc2[nH]1	
0.818 µM	0.397 µM	> 2.5 µM	CCC1=C(CC)/C(=C/NC23C[C@H]4C[C@@H](C2)C[C@@H](C3)C4)N=C1c1ccc(C#N)[nH]1	
0.456 µM	0.617 µM	0.787 µM	C(/NC12C[C@H]3C[C@@H](C1)C[C@@H](C2)C3)=C1/N=C(c2ccc[nH]2)C(Oc2ccccc2)=C1Oc1ccccc1	
> 2.5 µM	> 2.5 µM	> 2.5 µM	CCC1=C(CC)/C(=C/NC23C[C@H]4C[C@@H](C2)C[C@@H](C3)C4)N=C1c1ccccc1F	

The next lines start with the compound.

SMILES	IC50 [1]	IC50 [2]	IC50 [3]	other results
CCC1=C(CC)/C(=C/NC2CCCCCC2)N=C1c1ccc(C#N)[nH]1	> 2.5 µM	> 2.5 µM	> 2.5 µM	
CCC1=C(CC)/C(=C/NC2CCCCC2)N=C1c1cc2cc(OC)ccc2[nH]1	2.29 µM	1.08 µM	> 2.5 µM	
COc1ccc(C2=C(c3ccc(OC)cc3)/C(=C/NC3CCCCCC3)N=C2c2ccc[nH]2)cc1	0.131 µM		0.33 µM	
CCC1=C(CC)/C(=C/NC2CCCCCCC2)N=C1c1ccc(-c2ccc(OC)cc2)[nH]1	0.0254 µM	0.0145 µM	0.0225 µM	solubility [4]: < 3.125 µM; Papp A→B at 1 h [5]: 0.54 nm/s; half-life [6]: > 1 h; Papp B→A at 1 h [7]: 0.12 nm/s; Activity [8]: 0%; half-life [9]: > 1 h; IC50 [10]: 4.96 µM
CCC1=C(CC)/C(=C/NC2CCCCCCC2)N=C1c1ccc(Cc2ccc(OC)cc2)[nH]1	0.013 µM		0.0108 µM	solubility [4]: < 3.125 µM; Papp A→B at 1 h [5]: 0.74 nm/s; half-life [6]: > 1 h; Papp B→A at 1 h [7]: 1.2 nm/s; Activity [8]: 0%; half-life [9]: > 1 h; IC50 [10]: 4.31 µM
C(/NC1CCCCCC1)=C1/N=C(c2ccc[nH]2)C(Oc2ccccc2)=C1Oc1ccccc1	> 2.5 µM	> 2.5 µM	> 2.5 µM	
CCc1c(C(=O)NC2CCCCC2)[nH]c(-c2ccc(C)[nH]2)c1CC	> 2.5 µM	> 2.5 µM	> 2.5 µM	
COc1ccc(OC2=C(Oc3ccc(OC)cc3)/C(=C/NC3CCCCC3)N=C2c2ccc[nH]2)cc1	1.65 µM	1.22 µM	1.47 µM	
CCC1=C(CC)/C(=C/NC2CCCCCCC2)N=C1c1ccn[nH]1	> 2.5 µM	> 2.5 µM	> 2.5 µM	
C(/NC1CCCCCC1)=C1/N=C(c2ccc[nH]2)C(c2ccccc2)=C1c1ccccc1	2.11 µM		1 µM	
CCC1=C(CC)/C(=C/NC2CCCCCC2)N=C1c1ccc(-c2ccccc2)[nH]1	0.0198 µM		0.0302 µM	solubility [4]: 13.1 µM (≈ 5.08 µg/mL); microsomal CLint at 1 h [11]: 61.5 µL/min/mg; half-life [6]: 0.202 h; Papp B→A at 1 h [7]: 0.02 nm/s; microsomal CLint at 1 h [12]: 115 µL/min/mg; Activity [8]: 10.5%; half-life [9]: 0.375 h; IC50 [10]: 5.64 µM
CCC1=C(CC)/C(=C/NC2CCCCC2)N=C1c1ccn[nH]1	> 2.5 µM	> 2.5 µM	> 2.5 µM	
CCC1=C(CC)/C(=C/NC2CCCCCC2)N=C1c1ccn[nH]1	> 2.5 µM	> 2.5 µM	> 2.5 µM	
COc1ccc(OC2=C(Oc3ccc(OC)cc3)/C(=C/NC3CCCCCC3)N=C2c2ccc[nH]2)cc1	2.17 µM	1.49 µM	1.74 µM	
C(/NC1CCCCC1)=C1/N=C(c2ccc[nH]2)C(Oc2ccccc2)=C1Oc1ccccc1	> 2.5 µM	> 2.5 µM	> 2.5 µM	
CCC1=C(CC)/C(=C/NC2CCCCC2)N=C1c1ccccc1F	> 2.5 µM	> 2.5 µM	> 2.5 µM	
CCC1=C(CC)/C(=C/NC2CCCCCCC2)N=C1c1ccc(Cl)[nH]1	0.101 µM	0.186 µM	0.0991 µM	solubility [4]: 5.37 µM (≈ 1.93 µg/mL); microsomal CLint at 1 h [11]: 10.1 µL/min/mg; Papp A→B at 1 h [5]: 2.8 nm/s; half-life [6]: > 1 h; Papp B→A at 1 h [7]: 0.4 nm/s; microsomal CLint at 1 h [12]: 12.4 µL/min/mg; half-life [9]: > 1 h; IC50 [10]: 12.3 µM
CCC1=C(CC)/C(=C/NC2CCCCCCC2)N=C1c1ccc(C#N)[nH]1	> 2.5 µM	> 2.5 µM	> 2.5 µM	
CCC1=C(CC)/C(=C/NC2CCCCC2)N=C1c1ccccc1OCCN(C)C	> 2.5 µM	> 2.5 µM	1.38 µM	
C(/NC1CCCCC1)=C1/N=C(c2ccc[nH]2)C(c2ccccc2)=C1c1ccccc1	1.7 µM	1.52 µM	1.28 µM	
CCC1=C(CC)/C(=C/NC2CCCCC2)N=C1c1ccc(C#N)[nH]1	> 2.5 µM	1.6 µM	> 2.5 µM	
CCc1ccc(-c2[nH]c(C(=O)NC3CCCCC3)c(CC)c2CC)[nH]1	> 2.5 µM	> 2.5 µM	> 2.5 µM	
COc1ccc(C2=C(c3ccc(OC)cc3)/C(=C/NC3CCCCC3)N=C2c2ccc[nH]2)cc1	0.187 µM		0.343 µM	
CCc1c(C(=O)NC2CCCCC2)[nH]c(-c2ccc[nH]2)c1CC	> 2.5 µM	> 2.5 µM	> 2.5 µM	
